Results on ten compounds are retold here after ChEMBL document CHEMBL1158303, “Macrocarpals H, I, and J from the Leaves of Eucalyptus globulus” (1996).

In brackets after ≈: the same amount, converted by molar mass.

The subject of experiment [1] is Streptococcus sobrinus. The experiment can be described thus: Inhibition of Streptococcus sobrinus glucosyltransferase assessed as blockade of adherent water insoluble glucan synthesis at 100 ug/mL.
Experiment [2] deals with Prevotella intermedia. The experiment can be described thus: Antibacterial activity against Prevotella intermedia 25611 by broth dilution method. It is filed as functional.
Experiment [3] has as its system Streptococcus sobrinus. The experiment can be described thus: Antibacterial activity against Streptococcus sobrinus B13 by broth dilution method. It is filed as functional.
Experiment [4] has as its system Prevotella melaninogenica. The experiment is described as follows: Antibacterial activity against Prevotella melaninogenica 25845 by broth dilution method. It is filed as functional. Background: Broth dilution looks for growth in wells or tubes with falling amounts of substance.
Experiment [5] deals with Streptococcus sobrinus. The experiment can be described thus: Inhibition of Streptococcus sobrinus glucosyltransferase assessed as blockade of adherent water insoluble glucan synthesis at 1 ug/mL.
The subject of experiment [6] is Streptococcus mutans. The experiment is described as follows: Antibacterial activity against Streptococcus mutans LA7 by broth dilution method. The class given is functional.
Experiment [7] has as its system Streptococcus sobrinus. The experiment can be described thus: Antibacterial activity against Streptococcus sobrinus 6715 by broth dilution method. It is filed as functional.
Experiment [8] concerns Streptococcus mutans. The experiment can be described thus: Antibacterial activity against Streptococcus mutans Ingbritt by broth dilution method. The class given is functional.
Experiment [9] deals with Porphyromonas gingivalis. The experiment is described as follows: Antibacterial activity against Porphyromonas gingivalis 33277 by broth dilution method. The class given is functional.
In experiment [10] the test system is Fusobacterium nucleatum. The experiment is described as follows: Antibacterial activity against Fusobacterium nucleatum 25586 by broth dilution method. The class given is functional.
Experiment [11] deals with Capnocytophaga ochracea. The experiment is described as follows: Antibacterial activity against Capnocytophaga ochracea 33596 by broth dilution method. It is filed as functional.
Experiment [12] has as its system Streptococcus sobrinus. The experiment can be described thus: Inhibition of Streptococcus sobrinus glucosyltransferase assessed as blockade of adherent water insoluble glucan synthesis at 10 ug/mL.
Experiment [13] deals with Actinomyces viscosus. The experiment can be described thus: Antibacterial activity against Actinomyces viscosus 15987 by broth dilution method. The class given is functional.

As for `CC(C)CC(c1c(O)c(C=O)c(O)c(C=O)c1O)[C@@H]1CC[C@@](C)(O)[C@@H]2C[C@H](C(C)(C)O)CC[C@]21C` (some centres not stated) [MACROCARPAL J], the inhibition (usually the share of the control response that was lost under treatment) in experiment [1] came to 77.1%; in [5], 6.9%; in experiment [12], 29.7%. The MIC (commonly the lowest concentration found to suppress growth) in experiment [2] is 12.5 µg/mL (≈ 25.5 µM); in [3], 100 µg/mL (≈ 204 µM); in experiment [4] it was 12.5 µg/mL (≈ 25.5 µM); in [6] it was 25 µg/mL (≈ 51 µM); in experiment [7], 100 µg/mL (≈ 204 µM); in experiment [8] it was 50 µg/mL (≈ 102 µM). Besides, the MIC in experiment [9] was 6.25 µg/mL (≈ 12.7 µM); in [10], 25 µg/mL (≈ 51 µM); in experiment [11], 12.5 µg/mL (≈ 25.5 µM); in [13], 12.5 µg/mL (≈ 25.5 µM).
As to `CC(C)C[C@H](c1c(O)c(C=O)c(O)c(C=O)c1O)[C@@]1(C)CC[C@@H]2[C@@H]1[C@H]1[C@@H](CC[C@@]2(C)O)C1(C)C` [MACROCARPAL B], the results for the inhibition in [1], in [5] and in experiment [12] were 97.1%, 10.1% and 67.6%, respectively. Also, the MIC in experiment [2] was determined as 1.56 µg/mL (≈ 3.3 µM); in experiment [3], 3.13 µg/mL (≈ 6.62 µM); in [4], 3.13 µg/mL (≈ 6.62 µM); in experiment [6] it was 1.56 µg/mL (≈ 3.3 µM); in [7], 3.13 µg/mL (≈ 6.62 µM); in [8] it was 3.13 µg/mL (≈ 6.62 µM). The MIC is 0.78 µg/mL (≈ 1.65 µM) in experiment [9], 3.13 µg/mL (≈ 6.62 µM) in experiment [10], 1.56 µg/mL (≈ 3.3 µM) in experiment [11] and 0.39 µg/mL (≈ 0.825 µM) in experiment [13].
For the compound `C=C1CC[C@@H]([C@H](CC(C)C)c2c(O)c(C=O)c(O)c(C=O)c2O)[C@]2(C)CC[C@@H](C(C)(C)O)C[C@@H]12` [MACROCARPAL H], the inhibition in experiment [1] amounted to 97.6%; in experiment [5] it was 2.9%; in experiment [12] it was 64%. For the same compound, the MIC in experiment [2] stood at 0.78 µg/mL (≈ 1.65 µM); in [3], 3.13 µg/mL (≈ 6.62 µM); in experiment [4], 3.13 µg/mL (≈ 6.62 µM); in [6], 1.56 µg/mL (≈ 3.3 µM); in [7], 3.13 µg/mL (≈ 6.62 µM); in experiment [8], 3.13 µg/mL (≈ 6.62 µM). In addition, the minimum inhibitory concentration (MIC) in experiment [9] was 0.78 µg/mL (≈ 1.65 µM); in experiment [10] it was 6.25 µg/mL (≈ 13.2 µM); in experiment [11], 1.56 µg/mL (≈ 3.3 µM); in [13], 0.39 µg/mL (≈ 0.825 µM).
Turning to `CC(C)C[C@@H](c1c(O)c(C=O)c(O)c(C=O)c1O)[C@@]1(C)CC[C@@H]2[C@@H]1[C@H]1[C@@H](CC[C@@]2(C)O)C1(C)C` [MACROCARPAL A], the values for the inhibition in [1], in [5] and in [12] were 97.1%, 9.7% and 75.4%, respectively. For the same compound, the MIC in experiment [2] was 0.39 µg/mL (≈ 0.825 µM); in experiment [3], 1.56 µg/mL (≈ 3.3 µM); in experiment [4] it was 0.78 µg/mL (≈ 1.65 µM); in experiment [6], 0.78 µg/mL (≈ 1.65 µM); in experiment [7], 1.56 µg/mL (≈ 3.3 µM); in experiment [8], 0.78 µg/mL (≈ 1.65 µM). Further, the MIC in [9] is 0.39 µg/mL (≈ 0.825 µM); in experiment [10] it was 6.25 µg/mL (≈ 13.2 µM); in [11] it was 0.78 µg/mL (≈ 1.65 µM); in [13] it was 0.39 µg/mL (≈ 0.825 µM).
For `Cc1ccc(C(C)C)c(O)c1` [THYMOL], the MIC in experiment [2] came to 200 µg/mL (≈ 1330 µM); in experiment [3], 400 µg/mL (≈ 2660 µM); in experiment [4], 200 µg/mL (≈ 1330 µM); in experiment [6], 400 µg/mL (≈ 2660 µM); in experiment [7], 200 µg/mL (≈ 1330 µM); in experiment [8], 400 µg/mL (≈ 2660 µM). In addition, the MIC in [9] came out at 200 µg/mL (≈ 1330 µM); in [10], 50 µg/mL (≈ 333 µM); in experiment [11], 100 µg/mL (≈ 666 µM); in experiment [13], 200 µg/mL (≈ 1330 µM).
Consider `CC(C)C[C@H](c1c(O)c(C=O)c(O)c(C=O)c1O)[C@@H]1CC[C@@](C)(O)[C@@H]2C[C@H](C(C)(C)O)CC[C@]21C` [MACROCARPAL I], for which the inhibition in experiment [1] came out at 86.9%; in [5], 0%; in [12] it was 26.3%. For the same compound, the MIC was determined as 12.5 µg/mL (≈ 25.5 µM) in experiment [2]; 100 µg/mL (≈ 204 µM) in experiment [3]; 12.5 µg/mL (≈ 25.5 µM) in [4]; 25 µg/mL (≈ 51 µM) in experiment [6]; 100 µg/mL (≈ 204 µM) in experiment [7]; 50 µg/mL (≈ 102 µM) in experiment [8]. Moreover, the MIC in [9] worked out at 6.25 µg/mL (≈ 12.7 µM); in experiment [10], 25 µg/mL (≈ 51 µM); in experiment [11], 12.5 µg/mL (≈ 25.5 µM); in experiment [13], 12.5 µg/mL (≈ 25.5 µM).
For the compound `O=C(O[C@@H]1Cc2c(O)cc(O)cc2O[C@@H]1c1cc(O)c(O)c(O)c1)c1cc(O)c(O)c(O)c1`, the inhibition was found to be 26.5% in experiment [1], 3% in [5] and 10.5% in experiment [12].
As to `CC(C)C[C@@H](c1c(O)c(C=O)c(O)c(C=O)c1O)[C@@]1(C)CC[C@H]2C1=C[C@H](C(C)(C)O)CC[C@H]2C` [MACROCARPAL D], the inhibition in experiment [1] came to 99%; in [5], 17.3%; in [12] it was 78.2%. Moreover, the MIC in experiment [2] worked out at 0.39 µg/mL (≈ 0.825 µM); in experiment [3], 0.78 µg/mL (≈ 1.65 µM); in experiment [4] it was 1.56 µg/mL (≈ 3.3 µM); in experiment [6] it was 0.78 µg/mL (≈ 1.65 µM); in experiment [7], 3.13 µg/mL (≈ 6.62 µM); in experiment [8] it was 1.56 µg/mL (≈ 3.3 µM). In addition, the MIC in [9] was determined as 0.39 µg/mL (≈ 0.825 µM); in [10], 6.25 µg/mL (≈ 13.2 µM); in [11] it was 1.56 µg/mL (≈ 3.3 µM); in [13], 0.39 µg/mL (≈ 0.825 µM).
In the case of `C=C1CC[C@@H]2[C@H]([C@H]3[C@H]1CC[C@]3(C)[C@@H](CC(C)C)c1c(O)c(C=O)c(O)c(C=O)c1O)C2(C)C` [MACROCARPAL C], the inhibition in experiment [1] came to 98.9%; in experiment [5] it was 18.9%; in [12] it was 92.6%. For the same compound, the minimum inhibitory concentration (MIC) was 0.39 µg/mL (≈ 0.858 µM) in experiment [2]; 1.56 µg/mL (≈ 3.43 µM) in experiment [3]; 1.56 µg/mL (≈ 3.43 µM) in experiment [4]; 0.39 µg/mL (≈ 0.858 µM) in experiment [6]; 1.56 µg/mL (≈ 3.43 µM) in [7]; 0.39 µg/mL (≈ 0.858 µM) in experiment [8]. Further, the minimum inhibitory concentration (MIC) in [9] was determined as 0.2 µg/mL (≈ 0.44 µM); in [10], 0.78 µg/mL (≈ 1.72 µM); in experiment [11], 0.39 µg/mL (≈ 0.858 µM); in [13] it was 0.2 µg/mL (≈ 0.44 µM).
For `CC(=O)CC[C@@H]1[C@H]([C@H]2C(=O)CC[C@]2(C)C(CC(C)C)c2c(O)c(C=O)c(O)c(C=O)c2O)C1(C)C` (some centres not stated) [EUCALYPTONE], the results for the inhibition in experiment [1], in [5] and in [12] were 97.6%, 4.4% and 44%, respectively. The MIC was determined as 0.78 µg/mL (≈ 1.6 µM) in experiment [2]; 25 µg/mL (≈ 51.4 µM) in experiment [3]; 3.13 µg/mL (≈ 6.43 µM) in experiment [4]; 12.5 µg/mL (≈ 25.7 µM) in experiment [6]; 25 µg/mL (≈ 51.4 µM) in experiment [7]; 12.5 µg/mL (≈ 25.7 µM) in experiment [8]. For the same compound, the MIC in experiment [9] came to 1.56 µg/mL (≈ 3.21 µM); in experiment [10] it was 6.25 µg/mL (≈ 12.8 µM); in experiment [11], 3.13 µg/mL (≈ 6.43 µM); in [13], 3.13 µg/mL (≈ 6.43 µM).
